Laboratory results published in publication PMC12504763, “Antiproliferation, 3D-multicellular spheroid and VEGFR-2 inhibitory properties of spiroindolin-2-ones with phosphonate function” (Scientific Reports, 2025).
Where two headings read alike, the source gives them in different places.

Experiments:
[1] = molecular target: T1, VEGFR-2 (Homo sapiens, UniProt P35968); assay: cell-based; type: cell-based; conditions: for inhibition at 10 µM: MCF7; for VEGFR-2 pg/mL ± SEM MCF7: at 10 μM, control 258.70 ± 2.3
T1 construct: endogenous in cells; host or cells: HCT116, PaCa2, MCF7 (human cancer cell lines, ATCC origin)
T1 sequence (P35968 20-1356): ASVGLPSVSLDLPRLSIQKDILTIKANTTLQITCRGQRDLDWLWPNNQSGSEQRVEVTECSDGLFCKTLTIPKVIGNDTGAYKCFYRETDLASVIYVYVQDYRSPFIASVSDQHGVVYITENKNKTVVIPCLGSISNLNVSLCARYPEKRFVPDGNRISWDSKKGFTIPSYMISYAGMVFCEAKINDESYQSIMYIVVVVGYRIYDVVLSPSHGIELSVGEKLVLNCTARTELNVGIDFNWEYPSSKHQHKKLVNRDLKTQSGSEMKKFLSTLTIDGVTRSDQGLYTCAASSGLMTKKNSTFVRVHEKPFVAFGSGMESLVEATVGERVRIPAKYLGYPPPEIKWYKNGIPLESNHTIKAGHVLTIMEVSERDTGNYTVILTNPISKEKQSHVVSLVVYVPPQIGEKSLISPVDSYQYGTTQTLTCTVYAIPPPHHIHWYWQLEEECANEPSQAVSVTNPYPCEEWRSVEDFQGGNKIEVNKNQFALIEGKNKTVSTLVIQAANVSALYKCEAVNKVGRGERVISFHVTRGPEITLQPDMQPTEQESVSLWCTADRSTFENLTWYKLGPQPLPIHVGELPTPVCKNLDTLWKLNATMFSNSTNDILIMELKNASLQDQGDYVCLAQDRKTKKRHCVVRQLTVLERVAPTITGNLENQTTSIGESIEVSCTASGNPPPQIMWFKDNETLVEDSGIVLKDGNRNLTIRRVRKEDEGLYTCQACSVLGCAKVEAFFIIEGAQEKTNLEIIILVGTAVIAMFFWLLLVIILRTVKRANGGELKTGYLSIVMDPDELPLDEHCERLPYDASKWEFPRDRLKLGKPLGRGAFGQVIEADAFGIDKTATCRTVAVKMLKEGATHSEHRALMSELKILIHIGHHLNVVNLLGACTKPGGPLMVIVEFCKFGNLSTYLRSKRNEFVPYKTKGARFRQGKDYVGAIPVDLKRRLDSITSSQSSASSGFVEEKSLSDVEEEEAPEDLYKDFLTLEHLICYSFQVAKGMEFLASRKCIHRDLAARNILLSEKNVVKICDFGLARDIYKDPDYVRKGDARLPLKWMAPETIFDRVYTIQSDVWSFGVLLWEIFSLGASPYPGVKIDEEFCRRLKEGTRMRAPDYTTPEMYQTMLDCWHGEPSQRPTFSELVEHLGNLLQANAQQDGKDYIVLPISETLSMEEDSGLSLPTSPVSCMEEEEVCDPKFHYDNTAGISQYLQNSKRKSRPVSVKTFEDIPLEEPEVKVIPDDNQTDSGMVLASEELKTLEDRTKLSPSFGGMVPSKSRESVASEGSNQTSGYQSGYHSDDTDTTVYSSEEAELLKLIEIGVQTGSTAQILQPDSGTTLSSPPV

[2] = molecular target: T1, VEGFR-2; assay: cell-based; type: cell-based; conditions: for inhibition at 10 µM: HCT-116, HCT116; for VEGFR-2 pg/mL ± SEM HCT116: at 10 μM, control 317.80 ± 3.5
[3] = tested on: A549 (lung) cancer cell line; assay: 2D-monolayer antiproliferation (MTT) against A549; type: cell-based, human; conditions: for IC50: Homo sapiens, MTT, 72 h incubation, A549 lung, read-out: IC50, μM ± SEM A549; for SI (selectivity index) A549: IC50 of RPE1 normal cell/IC50 of A549
[4] = molecular target: T2, COX-2 (Homo sapiens, UniProt P35354); assay: biochemical; conditions: for inhibition at 10 µM: 3 replicates, read-out: % Inhibition of COX-2 ± SEM; for SI (selectivity index, COX-2/COX-1): at 10 μM
T2 construct: purchased BioVision incorporated USA K548–100
T2 sequence (P35354 18-604): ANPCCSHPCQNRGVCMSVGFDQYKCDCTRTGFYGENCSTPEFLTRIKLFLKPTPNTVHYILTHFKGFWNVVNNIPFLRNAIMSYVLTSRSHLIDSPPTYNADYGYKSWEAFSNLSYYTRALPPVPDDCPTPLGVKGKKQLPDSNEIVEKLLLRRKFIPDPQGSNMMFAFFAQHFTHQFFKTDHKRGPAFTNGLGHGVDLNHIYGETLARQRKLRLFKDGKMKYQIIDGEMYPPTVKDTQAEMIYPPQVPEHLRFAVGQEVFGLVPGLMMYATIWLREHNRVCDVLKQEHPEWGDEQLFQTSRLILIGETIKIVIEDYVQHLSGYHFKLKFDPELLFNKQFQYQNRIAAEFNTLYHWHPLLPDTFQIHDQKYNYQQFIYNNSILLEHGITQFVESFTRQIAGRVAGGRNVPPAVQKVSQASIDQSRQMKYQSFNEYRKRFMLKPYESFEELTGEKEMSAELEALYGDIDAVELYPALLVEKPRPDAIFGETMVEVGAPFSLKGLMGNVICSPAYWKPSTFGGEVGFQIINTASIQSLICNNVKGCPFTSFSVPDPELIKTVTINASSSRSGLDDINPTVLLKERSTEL

[5] = molecular target: T1, VEGFR-2; assay: cell-based; type: cell-based; conditions: for inhibition at 10 µM: PaCa-2, PaCa2; for VEGFR-2 pg/mL ± SEM PaCa2: at 10 μM, control 326.80 ± 1.9
[6] = tested on: TNF-α; assay: TNF-α inhibitory properties (ELISA), PaCa2 cell lysate; type: cell-based, human; conditions: at 10 μM; for TNF-α pg/mL (± SEM) PaCa2: control 111.8 ± 2.0
[7] = tested on: TNF-α; assay: TNF-α inhibitory properties (ELISA), HCT116 cell lysate; type: cell-based, human; conditions: at 10 μM; for TNF-α pg/mL (± SEM) HCT116: control 95.74 ± 0.5
[8] = tested on: TNF-α; assay: TNF-α inhibitory properties (ELISA), MCF7 cell lysate; type: cell-based, human; conditions: at 10 μM; for TNF-α pg/mL (± SEM) MCF7: control 83.26 ± 1.1
[9] = molecular target: T3, COX-1 (Ovis aries, UniProt P05979); assay: biochemical; conditions: 3 replicates, read-out: % Inhibition of COX-1 ± SEM
T3 construct: purchased BioVision incorporated USA K548–100
T3 sequence (P05979 25-600): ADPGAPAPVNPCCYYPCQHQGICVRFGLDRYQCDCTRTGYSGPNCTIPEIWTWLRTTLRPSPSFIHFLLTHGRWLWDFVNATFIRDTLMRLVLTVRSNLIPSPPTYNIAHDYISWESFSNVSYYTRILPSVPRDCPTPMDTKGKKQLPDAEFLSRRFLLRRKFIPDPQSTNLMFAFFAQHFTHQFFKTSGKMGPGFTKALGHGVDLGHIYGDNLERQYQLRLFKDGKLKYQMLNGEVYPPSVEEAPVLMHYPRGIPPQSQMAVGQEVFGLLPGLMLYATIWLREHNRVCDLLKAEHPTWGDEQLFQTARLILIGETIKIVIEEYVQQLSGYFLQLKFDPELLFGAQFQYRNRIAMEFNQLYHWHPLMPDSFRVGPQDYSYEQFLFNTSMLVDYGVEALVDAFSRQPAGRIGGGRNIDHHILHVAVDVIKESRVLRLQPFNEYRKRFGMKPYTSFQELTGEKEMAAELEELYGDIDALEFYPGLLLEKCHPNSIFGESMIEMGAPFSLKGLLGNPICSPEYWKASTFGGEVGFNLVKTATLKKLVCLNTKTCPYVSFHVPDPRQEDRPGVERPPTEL

[10] = tested on: PaCa2 (pancreatic) cancer cell line; assay: 2D-monolayer antiproliferation (MTT) against PaCa2; type: cell-based, human; conditions: for 1/(observed property): 1/observed IC50 (μM), PaCa2; for IC50: Homo sapiens, PaCa-2, MTT, 72 h incubation, PaCa2 pancreatic, read-out: IC50, μM ± SEM PaCa2; for SI (selectivity index) PaCa2: IC50 of RPE1 normal cell/IC50 of PaCa2
[11] = tested on: HCT116 (colon) cancer cell line; assay: 2D-monolayer antiproliferation (MTT) against HCT116; type: cell-based, human; conditions: for IC50: Homo sapiens, HCT-116; for SI (selectivity index) HCT116: IC50 of RPE1 normal cell/IC50 of HCT116
[12] = tested on: MCF7 (breast) cancer cell line; assay: 2D-monolayer antiproliferation (MTT) against MCF7; type: cell-based, human; conditions: for IC50: Homo sapiens, MTT, 72 h incubation, MCF7 breast, read-out: IC50, μM ± SEM MCF7; for SI (selectivity index) MCF7: IC50 of RPE1 normal cell/IC50 of MCF7
[13] = tested on: RPE1 (normal human immortalized retinal pigment epithelial cell line); assay: cells; type: cell-based; conditions: Homo sapiens, RPE-1; MTT, normal RPE1 cell; read-out: IC50, μM ± SEM RPE1
[14] = MTT, 72 h incubation, HCT116 colon, read-out: IC50, μM ± SEM HCT116

SMILES	inhibition at 10 µM [1] [%]	VEGFR-2 pg/mL ± SEM MCF7 [1] [pg/mL]	inhibition at 10 µM [2] [%]	VEGFR-2 pg/mL ± SEM HCT116 [2] [pg/mL]	IC50 [3] [µM]	SI (selectivity index) A549 [3]	inhibition at 10 µM [4] [%]	SI (selectivity index, COX-2/COX-1) [4]	inhibition at 10 µM [5] [%]	VEGFR-2 pg/mL ± SEM PaCa2 [5] [pg/mL]	TNF-α % inhibition PaCa2 [6] [%]	TNF-α pg/mL (± SEM) PaCa2 [6] [pg/mL]	TNF-α % inhibition HCT116 [7] [%]	TNF-α pg/mL (± SEM) HCT116 [7] [pg/mL]	TNF-α % inhibition MCF7 [8] [%]	TNF-α pg/mL (± SEM) MCF7 [8] [pg/mL]	inhibition at 10 µM [9] [%]	1/(observed property) [10]	IC50 [10] [µM]	SI (selectivity index) PaCa2 [10]	other results
CCOP(=O)(OCC)N1C/C(=C\c2cccs2)C(=O)C2(C1)C(c1cccs1)CN(C)C21C(=O)Nc2ccccc21 (stereo not drawn) [Compound 17q, Diethyl (E)-[1′-methyl-2,4′′-dioxo-4′-(thiophen-2-yl)-5′′-(thiophen-2-ylmethylene)dispiro[indoline-3,2′-pyrrolidine-3′,3′′-piperidin]-1′′-yl]phosphonate]	43.7	145.70 ± 1.9	58.4	132.30 ± 0.9	24.51 ± 0.204	1.1	62.1 ± 3.1	0.93	58.5	135.70 ± 1.7	17.9	91.8 ± 2.7	12.0	84.26 ± 0.8	3.1	80.67 ± 2.8	61.3 ± 1.5	0.07485	13.4 ± 0.325	2.0	IC50 [11, 14]: 11.8 ± 0.4 µM; IC50 ([11]; log of observed IC50 (μM), HCT116, read-out: Log(observed property) (converted)): 11.8 µM; SI (selectivity index) HCT116 [11]: 2.3; IC50 [12]: 9.13 ± 0.314 µM; SI (selectivity index) MCF7 [12]: 3.0; IC50 [13]: 27.2 ± 0.813 µM
CCOP(=O)(OCC)N1C/C(=C\c2cccs2)C(=O)C2(C1)C(c1cccs1)CN(C)C21C(=O)Nc2ccc(C)cc21 (stereo not drawn) [Compound 17t, Diethyl (E)-(1′,5-dimethyl-2,4′′-dioxo-4′-(thiophen-2-yl)-5′′-(thiophen-2-ylmethylene)dispiro[indoline-3,2′-pyrrolidine-3′,3′′-piperidin]-1′′-yl)phosphonate]	62.6	96.70 ± 1.2	60.8	124.70 ± 1.3	14.1 ± 0.201	1.8	63.7 ± 1.7	1.29	64.8	115.00 ± 0.9	14.3	95.8 ± 2.5	14.7	81.64 ± 2.1	0.4	82.91 ± 3.8	49.2 ± 1.9	0.1056	9.47 ± 0.097	2.7	IC50 [11, 14]: 7.34 ± 0.161 µM; SI (selectivity index) HCT116 [11]: 3.5; IC50 [12]: 6.45 ± 0.111 µM; SI (selectivity index) MCF7 [12]: 3.9; IC50 [13]: 25.4 ± 0.951 µM
